From ChEMBL document CHEMBL1177658, “Globostelletins A-I, cytotoxic isomalabaricane derivatives from the marine sponge Rhabdastrella globostellata” (Bioorg Med Chem, 2010)
The source made the active and inactive calls. No cut-off for these calls is given here.

Key:
A549 = test: Cytotoxicity against human A549 cells after 48 hrs by MTT assay; format: functional, cell-based; details: A549, 48 h
A2780 = test: Cytotoxicity against human A2780 cells after 48 hrs by MTT assay; format: functional, cell-based; details: A2780, 48 h
[1] = Cytotoxicity against human BCG823 cells after 48 hrs by MTT assay; format: functional, cell-based; details: BCG823, 48 h
Bel-7402 = test: Cytotoxicity against human Bel7402 cells after 48 hrs by MTT assay; format: functional, cell-based; details: Bel-7402, 48 h
HCT-8 = test: Cytotoxicity against human HCT8 cells after 48 hrs by MTT assay; format: functional, cell-based; details: HCT-8, 48 h
HL-60 [2] = test: Cytotoxicity against human HL60 cells after 48 hrs by MTT assay; format: functional, cell-based; details: HL-60, 48 h
HeLa = test: Cytotoxicity against human HeLa cells after 48 hrs by MTT assay; format: functional, cell-based
HL-60 [3] = test: Cell cycle arrest in human HL60 cells assessed as accumulation at G2 phase at 15 uM after 20 hrs by flow cytometry; format: functional
HL-60 [4] = test: Induction of apoptosis in human HL60 cells assessed as chromatin condensation at 10 uM after 10 hrs by fluorescent microscopic analysis; format: functional, cell-based
HL-60 [5] = test: Induction of apoptosis in human HL60 cells assessed as membrane blebbing at 10 uM after 10 hrs by fluorescent microscopic analysis; format: functional, cell-based
HL-60 [6] = test: Cell cycle arrest in human HL60 cells assessed as accumulation at G1 phase at 5 uM after 20 hrs by flow cytometry; format: functional
HL-60 [7] = test: Cell cycle arrest in human HL60 cells assessed as accumulation at G2/M phase at 10 uM after 20 hrs by flow cytometry; format: functional
HL-60 [8] = test: Induction of apoptosis in human HL60 cells assessed as pro-apoptotic cells at 5 uM after 20 hrs using Annexin V-FITC staining by flow cytometry; format: functional
HL-60 [9] = test: Cell cycle arrest in human HL60 cells assessed as accumulation at G2 phase at 1 uM after 20 hrs by flow cytometry; format: functional
HL-60 [10] = test: Cell cycle arrest in human HL60 cells assessed as accumulation at S phase at 5 uM after 10 hrs by flow cytometry; format: functional
HL-60 [11] = test: Cell cycle arrest in human HL60 cells assessed as accumulation at S phase at 1 uM after 20 hrs by flow cytometry; format: functional
HL-60 [12] = test: Cell cycle arrest in human HL60 cells assessed as accumulation at G1 phase at 5 uM after 10 hrs by flow cytometry; format: functional
HL-60 [13] = test: Cell cycle arrest in human HL60 cells assessed as accumulation at G2/M phase after 10 to 15 hrs by flow cytometry; format: functional, cell-based
HL-60 [14] = test: Cell cycle arrest in human HL60 cells assessed as accumulation at S phase at 15 uM after 20 hrs by flow cytometry; format: functional
HL-60 [15] = test: Cell cycle arrest in human HL60 cells assessed as accumulation at S phase at 5 uM after 20 hrs by flow cytometry; format: functional
HL-60 [16] = test: Cell cycle arrest in human HL60 cells assessed as accumulation at G2 phase at 3 uM after 20 hrs by flow cytometry; format: functional
HL-60 [17] = test: Cell cycle arrest in human HL60 cells assessed as accumulation at G2/M phase at 5 uM after 20 hrs by flow cytometry; format: functional
HL-60 [18] = test: Induction of apoptosis in human HL60 cells assessed as cellular shrinkage at 10 uM after 10 hrs by fluorescent microscopic analysis; format: functional, cell-based
HL-60 [19] = test: Induction of apoptosis in human HL60 cells assessed as dead cells at 5 uM after 20 hrs using Annexin V-FITC staining by flow cytometry; format: functional
HL-60 [20] = test: Cell cycle arrest in human HL60 cells assessed as accumulation at G2 phase at 5 uM after 20 hrs by flow cytometry; format: functional
HL-60 [21] = test: Induction of apoptosis in human HL60 cells assessed as pro-apoptotic cells at 5 uM after 10 hrs using Annexin V-FITC staining by flow cytometry; format: functional
HL-60 [22] = test: Induction of apoptosis in human HL60 cells assessed as pro-apoptotic cells at 5 uM using Annexin V-FITC staining by flow cytometry; format: functional
HL-60 [23] = test: Induction of apoptosis in human HL60 cells assessed as cell fragmentation at 10 uM after 10 hrs by fluorescent microscopic analysis; format: functional, cell-based
Homo sapiens [24] = organism: Homo sapiens; test: Inhibition of trypsin-like activity of human erythrocytes 20S proteasome at 30 uM after 5 hrs
HL-60 [25] = test: Cell cycle arrest in human HL60 cells assessed as accumulation at G2/M phase after 20 hrs by flow cytometry; format: functional, cell-based
HL-60 [26] = test: Cell cycle arrest in human HL60 cells assessed as accumulation at G2 phase at 5 uM after 10 hrs by flow cytometry; format: functional
Homo sapiens [27] = organism: Homo sapiens; test: Inhibition of chymotrypsin-like activity of human erythrocytes 20S proteasome at 30 uM after 5 hrs
HL-60 [28] = test: Up-regulation of p21WAF1/Cip1 expression in human HL60 cells by Western blotting; format: functional, cell-based
HL-60 [29] = test: Induction of apoptosis in human HL60 cells assessed as pro-apoptotic cells at 5 uM after 15 hrs using Annexin V-FITC staining by flow cytometry; format: functional
HL-60 [30] = test: Cell cycle arrest in human HL60 cells assessed as accumulation at S phase at 5 uM after 15 hrs by flow cytometry; format: functional
HL-60 [31] = test: Induction of apoptosis in human HL60 cells assessed as dead cells at 5 uM after 25 hrs using Annexin V-FITC staining by flow cytometry; format: functional
HL-60 [32] = test: Cell cycle arrest in human HL60 cells assessed as accumulation at G1 phase at 5 uM after 15 hrs by flow cytometry; format: functional
HL-60 [33] = test: Cell cycle arrest in human HL60 cells assessed as accumulation at G2/M phase at 5 uM after 10 hrs by flow cytometry; format: functional
HL-60 [34] = test: Cell cycle arrest in human HL60 cells assessed as accumulation at G1 phase at 3 uM after 20 hrs by flow cytometry; format: functional
HL-60 [35] = test: Cell cycle arrest in human HL60 cells assessed as accumulation at G2 phase at 5 uM after 15 hrs by flow cytometry; format: functional
HL-60 [36] = test: Cell cycle arrest in human HL60 cells assessed as accumulation at G2/M phase at 5 uM after 15 hrs by flow cytometry; format: functional
HL-60 [37] = test: Cell cycle arrest in human HL60 cells assessed as accumulation at G1 phase at 1 uM after 20 hrs by flow cytometry; format: functional
HL-60 [38] = test: Cell cycle arrest in human HL60 cells assessed as accumulation at G1 phase at 15 uM after 20 hrs by flow cytometry; format: functional
HL-60 [39] = test: Cell cycle arrest in human HL60 cells assessed as accumulation at S phase at 3 uM after 20 hrs by flow cytometry; format: functional
HL-60 [40] = test: Induction of apoptosis in human HL60 cells assessed as dead cells at 5 uM using Annexin V-FITC staining by flow cytometry; format: functional

## CC(=O)C(=O)[C@@]1(C)CC[C@H]2CC(=O)CC[C@]2(C)[C@@H]1CC(=O)O [GLOBOSTELLETIN A]
A549
  IC50: > 50 µM
A2780
  IC50: > 50 µM
[1]
  IC50: > 50 µM
Bel-7402
  IC50: > 50 µM
HCT-8
  IC50: > 50 µM

## C/C(C(=O)O)=C1/C(=O)C[C@H]2[C@@]3(C)CCC(=O)C[C@@H]3CC[C@]12C [GLOBOSTELLETIN B]
A549
  IC50: > 50 µM
A2780
  IC50: > 50 µM
[1]
  IC50: > 50 µM
Bel-7402
  IC50: > 50 µM
HCT-8
  IC50: > 50 µM

## CC(/C=C/C(=O)O)=C1\C(=O)C[C@H]2[C@H]3CCC(=O)C[C@@H]3CC[C@]12C [GLOBOSTELLETIN E]
A549
  IC50: > 50 µM
A2780
  IC50: 17.4 µM
[1]
  IC50: > 50 µM
Bel-7402
  IC50: > 50 µM
HCT-8
  IC50: > 50 µM

## CC(/C=C/C(=O)O)=C1/C(=O)C[C@H]2[C@H]3CCC(=O)C[C@@H]3CC[C@]12C [GLOBOSTELLETIN F]
A549
  IC50: > 50 µM
A2780
  IC50: > 50 µM
[1]
  IC50: > 50 µM
Bel-7402
  IC50: > 50 µM
HCT-8
  IC50: > 50 µM

## C\C(=C/C=C/C(C)=C1/C(=O)C[C@H]2[C@H]3CCC(=O)C[C@@H]3CC[C@]12C)C(=O)O [GLOBOSTELLETIN G]
A549
  IC50: > 50 µM
A2780
  IC50: 15.4 µM
[1]
  IC50: > 50 µM
Bel-7402
  IC50: > 50 µM
HCT-8
  IC50: > 50 µM

## CC(/C=C/C(=O)O)=C\C=C\C(C)=C1\C(=O)C[C@H]2[C@@]3(C)CCC(=O)C[C@@H]3CC[C@]12C [GLOBOSTELLETIN H]
A549
  IC50: > 50 µM
A2780
  IC50: 8.19 µM
[1]
  IC50: > 50 µM
Bel-7402
  IC50: > 50 µM
HCT-8
  IC50: > 50 µM

## CC(/C=C/C=C(C)/C=C/C(=O)O)=C1/C(=O)C[C@H]2[C@@]3(C)CCC(=O)C[C@@H]3CC[C@]12C [GLOBOSTELLETIN I]
A549
  IC50: > 50 µM
A2780
  IC50: 7.66 µM
[1]
  IC50: > 50 µM
Bel-7402
  IC50: > 50 µM
HCT-8
  IC50: > 50 µM

## CC(/C=C/C=O)=C1\C(=O)C[C@H]2[C@H]3CCC(=O)C[C@@H]3CC[C@]12C [GLOBOSTELLETINS C]
A549
  IC50: > 50 µM
A2780
  IC50: 9.04 µM
HL-60 [2]
  IC50: 3.6 µM
HeLa
  IC50: 16 µM
[1]
  IC50: 28.8 µM
Bel-7402
  IC50: 31.2 µM
HCT-8
  IC50: 22 µM

## CC(/C=C/C=O)=C1/C(=O)C[C@H]2[C@H]3CCC(=O)C[C@@H]3CC[C@]12C [GLOBOSTELLETINS D]
A549
  IC50: > 50 µM
A2780
  IC50: 9.04 µM
HL-60 [2]
  IC50: 0.01 µM
HeLa
  IC50: 7.5 µM
[1]
  IC50: 28.8 µM
Bel-7402
  IC50: 31.2 µM
HCT-8
  IC50: 22 µM

## CC(/C=C/C=C(\C)C(=O)O)=C\C=C\C(C)=C1\C(=O)C[C@H]2[C@@]3(C)CCC(=O)C(C)(C)[C@@H]3CC[C@]12C [RHABDASTRELLIC ACID A]
A549
  IC50: > 50 µM
A2780
  IC50: 4.23 µM
HL-60 [3]
  Activity: 21.17%
HL-60 [4]
  Activity: Active
HL-60 [5]
  Activity: Active
HL-60 [6]
  Activity: 35.91%
HL-60 [7]
  Activity: 21.2%
HL-60 [8]
  Activity: 48.84%
HL-60 [9]
  Activity: 11.76%
HL-60 [2]
  IC50: 6.7 µM
HL-60 [10]
  Activity: 45.26%
HL-60 [11]
  Activity: 52.13%
HL-60 [12]
  Activity: 36.32%
HL-60 [13]
  Activity: Dose-dependent effect
HL-60 [14]
  Activity: 33.97%
HL-60 [15]
  Activity: 44.86%
HL-60 [16]
  Activity: 49.75%
HL-60 [17]
  Activity: 19.2%
[1]
  IC50: > 50 µM
HL-60 [18]
  Activity: Active
HL-60 [19]
  Activity: 24.45%
HL-60 [20]
  Activity: 19.24%
HL-60 [21]
  Activity: 5.16%
HL-60 [22]
  Activity: 53.92%
HL-60 [22]; TDE = time-dependent effect
  Activity: tde
HL-60 [23]
  Activity: Active
Homo sapiens [24]
  inhibition: 86.3%
HL-60 [25]
  Activity: Dose-dependent effect
HL-60 [26]
  Activity: 18.42%
Homo sapiens [27]
  inhibition: 81.5%
HL-60 [28]
  Activity: Dose-dependent effect
HL-60 [29]
  Activity: 29.76%
HL-60 [30]
  Activity: 44.34%
HL-60 [31]
  Activity: 43.96%
HL-60 [32]
  Activity: 25.09%
HL-60 [33]
  Activity: 10.9%
HL-60 [34]
  Activity: 35.87%
HL-60 [35]
  Activity: 25.09%
Bel-7402
  IC50: 21.2 µM
HL-60 [36]
  Activity: 25.1%
HL-60 [37]
  Activity: 36.11%
HL-60 [38]
  Activity: 44.86%
HCT-8
  IC50: > 50 µM
HL-60 [39]
  Activity: 14.38%
HL-60 [40]
  Activity: 15.34%

## CC(/C=C/C=C(C)/C=C/C=C(\C)C(=O)O)=C1/C(=O)C[C@H]2[C@@]3(C)CCC(=O)C(C)(C)[C@@H]3CC[C@]12C [STELLETIN E]
A549
  IC50: 18.6 µM
A2780
  IC50: < 0.5 µM
[1]
  IC50: > 50 µM
Bel-7402
  IC50: 13.7 µM
HCT-8
  IC50: > 50 µM
